Data: ChEMBL document CHEMBL1201862, “PubChem BioAssay data set” (2004)
Several values for one entry are separate records, joined by “and”; a condition that tells them apart may be missing. Equal values may be shown once.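 Grown in 96-well plates, cells were treated for 48 hours with each compound at five concentrations. Insufficient inhibition: endpoint recorded as highest concentration tested. GI50 is the concentration that inhibits growth by half.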 Activity calls are given as the source filed them. Rule as the data show it: active = GI50 up to about 1.1 µM and inactive = higher.

How the values were obtained:
Assay in all cases: inhibition of tumour cell growth, NCI panel, 48 h
[1] = tested on: SW-620
[2] = tested on: EKVX
[3] = tested on: SF-295
[4] = tested on: OVCAR-3
[5] = tested on: CCRF-CEM
[6] = tested on: LOX IMVI
[7] = tested on: T47D
[8] = tested on: HOP-62
[9] = tested on: CAKI-1
[10] = tested on: A549
[11] = tested on: KM12
[12] = tested on: UACC-257
[13] = tested on: RXF 393
[14] = tested on: PC-3
[15] = tested on: SK-MEL-28
[16] = tested on: NCI-H226
[17] = tested on: K562
[18] = tested on: M14
[19] = tested on: NCI-H522
[20] = tested on: SF-539
[21] = tested on: IGROV-1
[22] = tested on: HL-60
[23] = tested on: RPMI-8226
[24] = tested on: HCC 2998
[25] = tested on: 786-0
[26] = tested on: BT-549
[27] = tested on: TK-10
[28] = tested on: SR
[29] = tested on: NCI-H23
[30] = tested on: SF-268
[31] = tested on: MOLT-4
[32] = tested on: OVCAR-8
[33] = tested on: OVCAR-4
[34] = tested on: SN12C
[35] = tested on: HCT-15
[36] = tested on: SK-MEL-5
[37] = tested on: MCF7
[38] = tested on: ACHN
[39] = tested on: Malme-3M
[40] = tested on: MDA-MB-231
[41] = tested on: SNB-19
[42] = tested on: DU-145
[43] = tested on: UACC-62
[44] = tested on: HT-29
[45] = tested on: SK-MEL-2
[46] = tested on: U-251
[47] = tested on: NCI-H460
[48] = tested on: Hs-578T
[49] = tested on: HCT-116
[50] = tested on: UO-31
[51] = tested on: A498
[52] = tested on: MDA-N
[53] = tested on: SNB-75
[54] = tested on: SK-OV-3
[55] = tested on: COLO 205
[56] = tested on: OVCAR-5
[57] = tested on: MDA-MB-435

CC(=O)OCC1OC(n2c(C)c(C)cc(C#N)c2=S)C(OC(C)=O)C(OC(C)=O)C1OC(C)=O (centres undefined)
GI50 [1]: > 100 µM (inactive) | GI50 [2]: > 100 µM (inactive) | GI50 [3]: > 100 µM (inactive) | GI50 [4]: > 100 µM (inactive) | GI50 [5]: > 10 µM (inactive) | GI50 [6]: > 100 µM (inactive) | GI50 [7]: > 100 µM (inactive) | GI50 [8]: > 100 µM (inactive) and 91 µM (inactive) | GI50 [9]: > 100 µM (inactive) | GI50 [10]: > 100 µM (inactive) | GI50 [11]: > 100 µM (inactive) | GI50 [12]: > 100 µM (inactive) | GI50 [13]: > 100 µM (inactive) | GI50 [14]: > 100 µM (inactive) | GI50 [15]: > 100 µM (inactive) | GI50 [16]: > 100 µM (inactive) | GI50 [17]: > 100 µM (inactive) | GI50 [18]: > 100 µM (inactive) | GI50 [19]: > 100 µM (inactive) and 52.4 µM (inactive) | GI50 [20]: > 100 µM (inactive) | GI50 [21]: > 100 µM (inactive) | GI50 [22]: > 100 µM (inactive) | GI50 [23]: > 100 µM (inactive) | GI50 [24]: > 100 µM (inactive) | GI50 [25]: > 100 µM (inactive) | GI50 [26]: > 100 µM (inactive) | GI50 [27]: > 100 µM (inactive) | GI50 [28]: > 100 µM (inactive) | GI50 [29]: > 100 µM (inactive) | GI50 [30]: 60.5 µM (inactive) | GI50 [31]: > 100 µM (inactive) | GI50 [32]: > 100 µM (inactive) | GI50 [33]: > 100 µM (inactive) | GI50 [34]: > 100 µM (inactive) | GI50 [35]: > 100 µM | GI50 [36]: > 100 µM (inactive) | GI50 [37]: > 100 µM (inactive) | GI50 [38]: > 100 µM (inactive) | GI50 [39]: > 100 µM (inactive) | GI50 [40]: > 100 µM (inactive) | GI50 [41]: > 100 µM (inactive) | GI50 [42]: > 100 µM (inactive) | GI50 [43]: 65.2 µM (inactive) | GI50 [44]: > 100 µM (inactive) | GI50 [45]: > 100 µM (inactive) and 72.1 µM (inactive) | GI50 [46]: > 100 µM (inactive) | GI50 [47]: > 100 µM (inactive) | GI50 [48]: > 100 µM (inactive) | GI50 [49]: > 100 µM (inactive) | GI50 [50]: > 100 µM (inactive) | GI50 [51]: > 100 µM (inactive) | GI50 [52]: > 100 µM (inactive)

O=C(O)Cc1cccc2c(=O)c3cccc([N+](=O)[O-])c3oc12
GI50 [1]: > 100 µM (inactive) | GI50 [2]: > 100 µM (inactive) | GI50 [3]: > 100 µM (inactive) | GI50 [4]: > 100 µM (inactive) | GI50 [5]: > 100 µM (inactive) | GI50 [6]: > 100 µM (inactive) | GI50 [7]: > 100 µM (inactive) | GI50 [8]: > 100 µM (inactive) | GI50 [9]: > 100 µM (inactive) | GI50 [10]: > 100 µM (inactive) | GI50 [11]: > 100 µM (inactive) | GI50 [12]: > 100 µM (inactive) | GI50 [13]: > 100 µM (inactive) | GI50 [14]: > 100 µM (inactive) | GI50 [15]: > 100 µM (inactive) | GI50 [16]: > 100 µM (inactive) | GI50 [17]: > 100 µM (inactive) | GI50 [18]: > 100 µM (inactive) | GI50 [53]: > 100 µM (inactive) | GI50 [19]: > 100 µM (inactive) | GI50 [20]: > 100 µM (inactive) | GI50 [21]: > 100 µM (inactive) | GI50 [22]: > 100 µM (inactive) | GI50 [23]: > 100 µM (inactive) | GI50 [24]: > 100 µM (inactive) | GI50 [25]: > 100 µM (inactive) | GI50 [26]: > 100 µM (inactive) | GI50 [27]: > 100 µM (inactive) | GI50 [28]: > 100 µM (inactive) | GI50 [29]: > 100 µM (inactive) | GI50 [30]: > 100 µM (inactive) | GI50 [54]: > 100 µM (inactive) | GI50 [31]: > 100 µM (inactive) | GI50 [32]: > 100 µM (inactive) | GI50 [33]: > 100 µM (inactive) | GI50 [34]: > 100 µM (inactive) | GI50 [35]: > 100 µM | GI50 [36]: > 100 µM (inactive) | GI50 [55]: > 100 µM (inactive) | GI50 [37]: > 100 µM (inactive) | GI50 [38]: > 100 µM (inactive) | GI50 [39]: > 100 µM (inactive) | GI50 [40]: > 100 µM (inactive) | GI50 [41]: > 100 µM (inactive) | GI50 [42]: > 100 µM (inactive) | GI50 [43]: > 100 µM (inactive) | GI50 [56]: > 100 µM (inactive) | GI50 [57]: > 100 µM (inactive) | GI50 [44]: > 100 µM (inactive) | GI50 [45]: > 100 µM (inactive) | GI50 [46]: > 100 µM (inactive) | GI50 [47]: > 100 µM (inactive) | GI50 [48]: > 100 µM (inactive) | GI50 [49]: > 100 µM (inactive) | GI50 [50]: > 100 µM (inactive) | GI50 [51]: > 100 µM (inactive) | GI50 [52]: > 100 µM (inactive)
